Experimental data published in patent publication US4613622A, “Sebosuppressive preparations containing benzyl alcohol derivatives” (Henkel Kommanditgesellschaft auf Aktien, priority 1983, dated 1986).

Assays:
[1] = tested on: brown skin surface lipids of the rats; test: Rat skin browning test for antiseborrheic (sebosuppressive) effect, visual assessment of shaved back; assay type: in vivo, male Wistar rats; details: topical; for Evaluation of sebosuppressive effects, evaluation method 1 (examiners recognizing the treated side) / Evaluation of sebosuppressive effects, evaluation method 2 (difference between righthand and lefthand side) / Evaluation of sebosuppressive effects, evaluation method 3 (difference in intensity of brown shades vs control animals): once daily for a total of 9 days over 14 days; for Sebum reduction: points difference / points of control group
Source text: The antiseborrheic effect was closely studied using the animal tests described in the following: The test animals were male Wistar rats having a body weight of 220 to 230 g. The degree of browning on the shaved back of the rats was visually assessed. Browning is produced by the brown skin surface lipids of the rats. This test is based on the observation that young male and female rats washed with surfactant solution or with a lipid solvent and also male rats systematically treated with oestrogen have only the normal light, pick-colored skin after shaving. At the same time, only comparatively very small quantities of lipids can be extracted from shaved hairs. In order to assess effectiveness, the test substances in solution in alcohol were each brushed onto half the back of 6 rats. The other half was only treated with the solvent minus active substances. Over the test period of 14 days, the test substances were applied once daily for a total of 9 days. A group of 6 rats which remained completely untreated was used for further control. At the end of the test, the animals were shaved on their back and sides and were visually assessed independently by an examination panel of 6 people under double blind conditions. The first criterion evaluated was whether the majority of examiners correctly recognized the treated side, differentiation being carried out as follows: The second criterion evaluated was the difference between the righthand side and the lefthand side, each examiner having to award 1 point per animal on the following basis: Significant differences between the untreated and treated sides in the second method of evaluation indicated the local effectiveness of a substance. The third criterion evaluated was the difference in intensity between the shades of brown using the following scale: In the third method of evaluation, the total point differences are compared between the untreated control animals and the treated and untreated sides of the test animals, significant differences between the control animals and the treated side of the test animals again indicating the effectiveness of a substance. There is generally also a distinct difference between the untreated and treated sides of the same test animals. However, this difference is not always as clear as that between the control animals and the treated sides, for which there may be various reasons, such as mechanical transfer of substance from one side to the other or solvent influence. The following scheme was used for differentiating the effects according to evaluation methods 2 and 3: The sebum reduction is calculated from the points difference by working out the quotient between the points difference ΔP and the number of points for the control group Pk, and expressing the value obtained in percent. [formula] The benzyl alcohol derivatives were applied in the manner described in concentrations of 0.5 and 1.0% in alcohol/acetone (1:1).

[2] = tested on: secretion of the sebaceous glands; details: known additives of U.S. Pat. No. 4,331,655 / German Patent Application 29 26 267; cited from earlier work

Compound	Evaluation of sebosuppressive effects, evaluation method 1 (examiners recognizing the treated side) ([1]; 0.5% in alcohol/acetone (1:1))	Evaluation of sebosuppressive effects, evaluation method 2 (difference between righthand and lefthand side) ([1]; 0.5% in alcohol/acetone (1:1))	Evaluation of sebosuppressive effects, evaluation method 3 (difference in intensity of brown shades vs control animals) ([1]; 0.5% in alcohol/acetone (1:1))	Sebum reduction ([1]; 0.5% in alcohol/acetone (1:1))	antiseborrheic effect [2]	Evaluation of sebosuppressive effects, evaluation method 1 (examiners recognizing the treated side) ([1]; 1.0% in alcohol/acetone (1:1))	Evaluation of sebosuppressive effects, evaluation method 2 (difference between righthand and lefthand side) ([1]; 1.0% in alcohol/acetone (1:1))	Evaluation of sebosuppressive effects, evaluation method 3 (difference in intensity of brown shades vs control animals) ([1]; 1.0% in alcohol/acetone (1:1))	Sebum reduction ([1]; 1.0% in alcohol/acetone (1:1))
CCCCCCCCCCCCc1ccc(CO)cc1 [C, 4-dodecylbenzyl alcohol]	++ (100%)	++ (very large (≥99.9% probability))	++ (very large (≥99.9% probability))	32%					
CCCCCCCCCCOCc1ccc(CO)cc1 [D, 4-decyloxymethylbenzyl alcohol]	++ (100%)	++ (very large (≥99.9% probability))	++ (very large (≥99.9% probability))	82%					
OCc1ccc(-c2ccccc2)cc1 [E, 4-phenylbenzyl alcohol]	++ (100%)	++ (very large (≥99.9% probability))	++ (very large (≥99.9% probability))	72%					
CC(=O)OCC=C(C)CCC=C(C)CCC=C(C)C [3,7,11-tri:methyl-2,6,10-dodecatri:en-1-ol acetate]					only a very weak antiseborrheic effect				
CC(C)(C)c1ccc(CO)cc1 [F, 4-tert.-butylbenzyl alcohol]						++ (100%)	++ (very large (≥99.9% probability))	++ (very large (≥99.9% probability))	56%
CCCCCCCCCCc1ccc(CO)cc1 [B, 4-decylbenzyl alcohol]	++ (100%)	++ (very large (≥99.9% probability))	++ (very large (≥99.9% probability))	95%					
CCOCC=C(C)CCC=C(C)CCC=C(C)C [3,7,11-tri:methyl-2,6,10-dodecatri:en-1-ol ethyl ether]					only a very weak antiseborrheic effect				
OCc1ccccc1 [Benzyl alcohol]						0 (≥50%)	0 (minimal (<95% probability))	0 (minimal (<95% probability))	0%
CCCCCCCCc1ccc(CO)cc1 [A, 4-octylbenzyl alcohol]	++ (100%)	++ (very large (≥99.9% probability))	++ (very large (≥99.9% probability))	94%					
